Results: paper PMC9820430, “New Affordable Methods for Large-Scale Isolation of Major Olive Secoiridoids and Systematic Comparative Study of Their Antiproliferative/Cytotoxic Effect on Multiple Cancer Cell Lines of Different Cancer Origins” (International Journal of Molecular Sciences, 2022)
Where two headings read alike, the source gives them in different places.

Key:
SK-BR-3 = assay: Annexin V-FITC/PI staining, flow cytometry; assay type: cell-based, human; settings: 48 h at EC50
Source text: (§1) To discern whether cell death triggered by OOPs treatment occurred via apoptosis or necrosis under the experimental conditions applied in this study, live cells treated with OOPs were stained simultaneously with FITC-conjugated annexin V and propidium iodide (PI). Annexin V binds to phosphatidylserine (PS) translocating from the inner to the outer leaflet of the plasma membrane in apoptotic cells. Therefore, annexin V-FITC binding to PS labels live apoptotic cells with green FL. […] PS exposure to the extracellular space and cell membrane permeability were analyzed by flow cytometry as described in detail in the Experimental Section. […] OOP concentrations used were equal to the EC50 values for each cell line (Table 1). annexin V and PI staining discriminated between early- (i.e., annexin V +ve and PI −ve) and late-apoptotic cells (i.e., annexin V +ve and PI +ve), as well as between necrotic (i.e., annexin V −ve and PI +ve) and live (i.e., annexin V −ve and PI −ve) cells (Table 4).
(§2) Apoptosis and necrosis were assessed by double staining with annexin V-FITC and propidium iodide (PI) and were analyzed using flow cytometry (FACS). Human cancer cells were plated in 96-well culture plates in 100 μL of complete medium and were allowed to adhere overnight (~16 h). […] In detail, 0.5 μL of a 500× stock of each tested compound in DMSO was added directly into each well in a final volume of 250 μL culture medium and was gently mixed by pipetting. Control wells were prepared under the same experimental conditions by adding only DMSO at a final concentration of 0.2% (v/v). At the end of the treatment, the cells were detached by trypsinization, media with serum was added to deactivate trypsin, and the cells from three wells were pooled together by centrifugation (1000 rpm, 5 min, 24 °C), washed with cold PBS, centrifuged (1000 rpm, 5 min, 24 °C) and finally resuspended in cold 1× annexin V binding buffer (10 mM HEPES pH = 7.4, 150 mM NaCl, 2.5 mM CaCl2) at a density of 10^4 cells/mL. Staining was performed by incubating with annexin V- FITC and propidium iodide (PI; BioLegend) for 15 min at room temperature in the dark, according to the manufacturer’s instructions. Negative control samples consisted of cells treated only with 0.2% (v/v) DMSO for the same incubation time length (i.e., 48 h). Cells treated with Triton X-100 (0.25% (v/v)) for 5 min at 4 °C were used as controls for 100% permeabilization of the plasma membrane and maximum fluorescence staining with PI (positive control for cells in necrosis). The presence of live, apoptotic or necrotic cells was assessed with the FACS Calibur (Becton–Dickinson, San Jose, CA, USA). In total, 10,000 cells were analyzed per measurement and the acquired data were analyzed using the FlowJo V.10.0.8 software (Tree Star Inc., Ashland, OR, USA). Each condition was analyzed in duplicate, and the results presented are from 2 or 3 independent experiments.
(§3) Data showing OOPs’ apoptotic/necrotic effect were derived from two or three independent experiments and were presented as the means ± SE of the percentage (%) of both annexin V-positive cells (early apoptotic events) and % of annexin V/PI positive cells (late apoptotic events) over the whole cell population normalized to the corresponding events of the control cells, as determined using the FlowJo software.

PANC-1 = assay: Annexin V-FITC/PI staining, flow cytometry; assay type: cell-based, human; settings: 48 h at EC50
Source text: as §1, §2, §3

AGS = assay: Annexin V-FITC/PI staining, flow cytometry; assay type: cell-based, human; settings: 48 h at EC50
Source text: as §1, §2, §3

NHDF = assay: ATP-based luminescence cell viability assay (ViaLight), 72 h; settings: NHDF (normal human dermal fibroblasts); 72 h treatment; read-out: EC50 Values of Olive Oil Polyphenols
Procedure: The antiproliferative/cytotoxic effects of the selected OOPs on each cell line were assessed by measuring the cellular ATP levels after 72 h treatments using an ATP-based luminescence assay. This assay, initially developed as a tumor chemosensitivity assay, has shown considerable promise as a general in vitro toxicity assay due to its high sensitivity that allows the detection of a small number of cells. Consequently, it can be applied to both cancer cell lines and primary tissue cells. […] The EC50 values were calculated by nonlinear regression (curve fit) using a sigmoidal dose–response equation (Figure 2A and Figure S2).
The OOPs tested in this study were first dissolved in an appropriate DMSO volume such as to prepare a final stock solution of 50 mM, which was further used to prepare various compound concentrations in DMSO-based solutions. The final DMSO concentration in the cell culture was maintained constant in all treated groups of any given experiment and never exceeded the value of 0.2% (v/v). For the treatment experiments, cells were plated in 96-well culture plates, in 100 μL of complete medium at a seeding density of 5000–10,000 cells/well—depending on cells’ size and doubling time—and were allowed to adhere overnight (~16 h). The next day, 150 μL of complete medium was added to each well and the cells were treated with various concentrations of OOPs. Each concentration was tested in triplicate and was repeated 2–3 times. To prepare the final concentration solutions, 0.5 μL of a 500× stock of each tested compound in DMSO was added directly into each well in a final volume of 250 μL culture medium and was gently mixed by pipetting. Control wells were prepared under the same experimental conditions by adding only DMSO at a final concentration of 0.2% (v/v). Compounds were not renewed during the entire period of cell exposure. All cells were cultured at 37 °C in a 5% (v/v) CO2 for 24, 48 or 72 h.
Briefly, after the treatment with OOPs, the adapted medium was removed from the dish wells and the cells were washed twice with medium without FBS. Then, the C-lysis (LT27-076) was diluted in PBS (1:2) and a volume of 50 μL was added to each well. Cells were incubated with C-lysis for at least 10 min. Finally, an equal volume of lysed cells from each well and ATP monitoring reagent (AMR; LT27-212) was transferred to the wells of a white-walled illuminometer plate (Greiner bio-one; 655074). Cell viability was quantified by measuring luminescence using a multi-mode microplate reader Safire^2 Tecan (software Magellan V6.00 STD.2PC WIN.20000/XP).

MDA-MB 231 = settings: cited from earlier work
H1299 = assay: Annexin V-FITC/PI staining, flow cytometry; assay type: cell-based, human; settings: 48 h at EC50
Source text: as §1, §2, §3

Row | Compound | % Cell Viability (SK-BR-3) [%] | Early Apoptotic (% ± S.D.) (SK-BR-3) [%] | Late Apoptotic (% ± S.D.) (SK-BR-3) | Total Apoptotic (%) (SK-BR-3) | % Cell Viability (PANC-1) [%] | Early Apoptotic (% ± S.D.) (PANC-1) [%] | Late Apoptotic (% ± S.D.) (PANC-1) | Total Apoptotic (%) (PANC-1) | % Cell Viability (AGS) [%] | Early Apoptotic (% ± S.D.) (AGS) [%] | Late Apoptotic (% ± S.D.) (AGS) [%] | Total Apoptotic (%) (AGS) | EC50 (NHDF) [µM] | EC50 (MDA-MB 231; 48 h treatment, ref Busnena et al. (2013) 23) [µM] | % Cell Viability (H1299) [%] | Early Apoptotic (% ± S.D.) (H1299) [%] | Late Apoptotic (% ± S.D.) (H1299) [%] | EC50 (MDA-MB 231; 48 or 72 h, different culture conditions) [µM] | Total Apoptotic (%) (H1299) | EC50 (MDA-MB 231; ref Mazzei et al. (2020) 27) [µM]
1 | ligstroside aglycone [4a,b] | 87 | 1.30 ± 0.3 | No L.A. | 1.30 ± 0.3 | 34 | 12.37 ± 2.7 | 4.42 ± 0.4% | 16.78 ± 3.1 | 36 | 16.03 ± 0.8 | 7.77 ± 1.8 | 23.79 ± 2.6 | 46.5 ± 5 | ~80 | – | – | – | – | – | –
2 | C/C=C(/C=O)[C@@H](CC=O)CC(=O)OCCc1ccc(O)cc1 [compound 1, oleocanthal] | 59 | 7.45 ± 4.4 | 1.26 ± 0.7% | 8.71 ± 5.1 | 60 | 4.47 ± 0.8 | No L.A. | 4.47 ± 0.8 | 33 | 18.42 ± 4.4 | 4.94 ± 3.1 | 23.36 ± 1.4 | 24.7 ± 0.4 | – | 57 | 4.77 ± 0.9 | 7.27 ± 0.2 | 10 to 18.5 | – | –
3 | COC(=O)C1=COC(C)[C@@H](C=O)[C@@H]1CC(=O)OCCc1ccc(O)c(O)c1 (mixture of isomers) [3a,b, oleuropein aglycone] | 59 | 7.63 ± 1.9 | No L.A. | 7.63 ± 1.9 | 40 | 8.52 ± 2.3 | 3.01 ± 2.0% | 11.52 ± 4.3 | 31 | 19.40 ± 0.6 | 8.08 ± 2.0 | 27.48 ± 1.4 | 42.7 ± 0.5 | – | 40 | 9.14 ± 3.1 | 5.44 ± 2.2 | – | 14.58 ± 5.3 | 53
4 | C/C=C(/C=O)[C@@H](CC=O)CC(=O)OCCc1ccc(O)c(O)c1 [compound 2, oleacein] | 60 | 5.78 ± 0.9 | No L.A. | 5.78 ± 0.9 | 58 | 4.39 ± 1.8 | No L.A. | 4.39 ± 1.8 | 41 | 10.00 ± 1.3 | 4.55 ± 1.8 | 14.55 ± 3.1 | 49 ± 1.2 | – | 40 | 5.96 ± 1.6 | 3.07 ± 1.8 | – | 9.03 ± 0.2 | –
